Structures can show the parent of a compound that is named as a salt. Where two headings read alike, the source gives them in different places.
Assays:
[1] = target: T1, GST-HBx (genotype D); HBx-D (Hepatitis B virus, UniProt Q80IS1); test: biochemical; parameters: Surface plasmon resonance imaging; GST-HBx injected over chip of photo-crosslinked FDA-approved drugs (PlexArray HT), Langmuir fit
T1 construct: gene X; N-terminal GST tag kept (GST 26 kDa; GST-HBx 43 kDa), full-length HBx (154 aa), pGEX, E. coli BL21 (DE3), glutathione-Sepharose
Method: All the assays and analyses were performed by Plexera LLC. The binding activity was measured by surface plasmon resonance imaging (SPRi) using a PlexArray HT system (Plexera LLC). The FDA1018 drug library chip consists of an array of 1018 U.S. FDA-approved drugs were ultraviolet-linked on the surface of a chip and used for screening of compounds that bind to the HBx protein. Phosphate-buffered saline was used for a running buffer and 10 mM glycine hydrochloride (pH 2.0) for a regeneration buffer. 25, 50, or 100 nM of GST-HBx protein were injected on the chip surface at a flow rate of […] in order, and the SPRi signal was measured at 25 °C. FK506-binding protein 12 (FKBP12) was used for a positive control (Supplementary Figure S1). The data were analyzed by Plexera Data Analysis Software based on Langmuir adsorption isotherm, and determination of the dissociation constant, dissociation rate constant, and association rate constant was carried out. The binding of GST-HBx protein to 1018 FDA-approved compounds was screened on a chip by SPRi assay. […] Because purification of HBx alone was difficult due to insolubility, HBx was expressed as a GST-fused protein.

[2] = target: T2, GST-HBx (genotype B); HBx-B; test: SPR imaging, compound array (PlexArray HT); parameters: species or system Hepatitis B virus; conditions: PBS, 25 °C; compound UV-linked to chip surface, GST-HBx 25-100 nM as analyte
T2 construct: gene X; N-terminal GST tag kept (GST 26 kDa; GST-HBx 43 kDa), full-length HBx (154 aa), pGEX, E. coli BL21 (DE3), glutathione-Sepharose

[3] = target: T1, GST-HBx (genotype D); HBx-D; test: SPR imaging, compound array (PlexArray HT); type: binding
Source text: SPR imaging, compound array (PlexArray HT) on GST-HBx (genotype D); HBx-D

Structure (SMILES) | Kd [1] | koff [1] | kon ([1]; read-out: kon) | Kd [2] | Kd [3] | kon ([1]; binder, kon (M-1 s-1))
CCOc1nc2cccc(C(=O)O)c2n1Cc1ccc(-c2ccccc2-c2noc(=O)[nH]2)cc1 [Azilsartan] | 2.38 nM | 0.000348 s⁻¹ | 146000 M⁻¹ s⁻¹ | – | – | –
COc1ccc(/C=C/C(=O)Nc2ccccc2C(=O)O)cc1OC [Tranilast] | – | 2.61e-07 s⁻¹ | 194000 M⁻¹ s⁻¹ | 0.184 nM | 0.00135 nM | –
CCCc1nc(C(C)(C)O)c(C(=O)OCc2oc(=O)oc2C)n1Cc1ccc(-c2ccccc2-c2nnn[nH]2)cc1 [Olmesartan medoxomil] | – | 0.000581 s⁻¹ | 108000 M⁻¹ s⁻¹ | – | – | –
CC[C@H]1OC(=O)C[C@@H](O)[C@H](C)[C@@H](O[C@@H]2O[C@H](C)[C@@H](O)[C@H](N(C)C)[C@H]2O)[C@@H](CCN2C[C@H](C)C[C@H](C)C2)C[C@@H](C)C(=O)/C=C/C(C)=C/[C@@H]1CO[C@@H]1O[C@H](C)[C@@H](O)[C@@H](OC)[C@H]1OC [Tilmicosin] | 1.3 nM | 8.79e-05 s⁻¹ | 67700 M⁻¹ s⁻¹ | – | – | –
CC(C)[C@H]1CC[C@H](C(=O)N[C@H](Cc2ccccc2)C(=O)O)CC1 [Nateglinide] | 2.31 nM | 0.00016 s⁻¹ | 69100 M⁻¹ s⁻¹ | – | – | –
CCCCC(=O)N(Cc1ccc(-c2ccccc2-c2nn[nH]n2)cc1)[C@H](C(=O)O)C(C)C [Valsartan] | – | 0.00017 s⁻¹ | 186000 M⁻¹ s⁻¹ | 7.94 nM | 0.912 nM | –
CC1=NN(c2ccc(C)c(C)c2)C(=O)/C1=N\Nc1cccc(-c2cccc(C(=O)O)c2)c1O [Eltrombopag] | 8.46 nM | 0.000385 s⁻¹ | 45500 M⁻¹ s⁻¹ | – | – | –
CC[C@H]1OC(=O)[C@H](C)[C@@H](O[C@H]2C[C@@](C)(OC)[C@@H](O)[C@H](C)O2)[C@H](C)[C@@H](O[C@@H]2O[C@H](C)C[C@H](N(C)C)[C@H]2O)[C@](C)(O)C[C@@H](C)CN(C)[C@H](C)[C@@H](O)[C@]1(C)O [Azithromycin] | 1.15 nM | – | 85100 M⁻¹ s⁻¹ | 1.31 nM | 0.0467 nM | 89200 M⁻¹ s⁻¹
CC(C(=O)O)c1ccc(C(=O)c2cccs2)cc1 (stereo not drawn) [Suprofen] | 2.75 nM | 0.000308 s⁻¹ | 112000 M⁻¹ s⁻¹ | – | – | –
CC1(C)[C@@H](O[C@H]2O[C@H](C(=O)O)[C@@H](O)[C@H](O)[C@H]2O[C@@H]2O[C@H](C(=O)O)[C@@H](O)[C@H](O)[C@H]2O)CC[C@]2(C)[C@H]3C(=O)C=C4[C@@H]5C[C@@](C)(C(=O)O)CC[C@]5(C)CC[C@@]4(C)[C@]3(C)CC[C@@H]12 [Ammonium glycyrrhizinate] | – | 0.000108 s⁻¹ | 143000 M⁻¹ s⁻¹ | – | 0.756 nM | –
CC(C(=O)O)c1ccc2c(c1)Cc1cccnc1O2 (stereo not drawn) [Pranoprofen] | 5.58 nM | 0.000292 s⁻¹ | 52300 M⁻¹ s⁻¹ | – | – | –
O=C(O)c1ccc(-n2nc(-c3ccccc3O)nc2-c2ccccc2O)cc1 [Deferasirox] | 1.4 nM | 0.000134 s⁻¹ | 95800 M⁻¹ s⁻¹ | – | – | –
CCCCC(CC)CNC(=N)NC(=N)NCCCCCCNC(=N)NC(=N)NCC(CC)CCCC (stereo not drawn) [Alexidine hydrochloride] | – | 7.83e-06 s⁻¹ | 158000 M⁻¹ s⁻¹ | – | 0.0495 nM | –
Cc1noc(NS(=O)(=O)c2ccc(N)cc2)c1C [Sulfisoxazole] | 9.88 nM | 0.000509 s⁻¹ | 51500 M⁻¹ s⁻¹ | – | – | –
CCCCCCCCCCCC[N+](C)(C)CCOc1ccccc1 [Domiphen Bromide] | – | 3.03e-06 s⁻¹ | 105000 M⁻¹ s⁻¹ | – | 0.0288 nM | –
CCOc1nc2cccc(C(=O)O)c2n1Cc1ccc(-c2ccccc2-c2nnn[nH]2)cc1 [Candesartan] | 1.33 nM | 0.00021 s⁻¹ | 158000 M⁻¹ s⁻¹ | – | – | –
CC(C)NCC(O)COc1ccc(CCOCC2CC2)cc1 (stereo not drawn) [Betaxolol] | 1.28 nM | 9.85e-06 s⁻¹ | 7710 M⁻¹ s⁻¹ | – | – | –
CCC1=C(C)CN(C(=O)NCCc2ccc(S(=O)(=O)NC(=O)N[C@H]3CC[C@H](C)CC3)cc2)C1=O [Glimepiride] | 9.81 nM | 0.000366 s⁻¹ | 37300 M⁻¹ s⁻¹ | – | – | –
Cc1cnc(C(=O)NCCc2ccc(S(=O)(=O)NC(=O)NC3CCCCC3)cc2)cn1 [Glipizide] | 4.49 nM | 0.000203 s⁻¹ | 45100 M⁻¹ s⁻¹ | – | – | –

Reference: paper PMC9569680, “Antiviral Compounds Screening Targeting HBx Protein of the Hepatitis B Virus” (International Journal of Molecular Sciences, 2022)
